This passage reports MIC results from ChEMBL document CHEMBL3132819, “2-Hydroxy-substituted cinnamic acids and acetanilides are selective growth inhibitors of Mycobacterium tuberculosis” (Medchemcomm, 2014).

Each structure is given as a SMILES string. ≈ marks a conversion by molar mass, not a printed value.

For this test, the system named is Mycobacterium tuberculosis variant bovis BCG. Nature of the test: Antibacterial activity against Mycobacterium bovis BCG ATCC 35734 after 2 weeks by spot culture growth inhibition assay. The note with it: ATCC 35734, 336 h. The test is classed as functional.

Molecule `O=C(O)/C=C/c1ccc2c(c1)OCO2` showed an MIC of 416 µM (≈ 79.9 µg/mL).

Consider `CC(=O)Nc1ccccc1O`, for which the lowest concentration to inhibit growth (MIC) was 132 µM (≈ 20 µg/mL).

`COC(=O)/C=C/c1cccc(O)c1` registered an MIC of 561 µM (≈ 100 µg/mL).

`CC(C)=CCC/C(C)=C/COc1ccc(/C=C/C(=O)O)cc1` came in with an MIC of 134 µM (≈ 40.3 µg/mL).

The molecule `COC(=O)/C=C/c1ccc(OC/C=C(\C)CCC=C(C)C)cc1` came in with an MIC of 254 µM (≈ 79.9 µg/mL).

In the case of `COC(=O)/C=C/c1ccc(OCC=C(C)C)cc1`, the MIC stood at 60.9 µM (≈ 15 µg/mL).

Turning to `COC(=O)/C=C/c1cccc(OCC=C(C)C)c1`, inhibition of growth (MIC) required 244 µM (≈ 60.1 µg/mL).

In turn, `COC(=O)/C=C/c1ccccc1OCC=C(C)C` displayed an MIC of over 406 µM.

The molecule `CC(C)=CCOc1cccc(/C=C/C(=O)O)c1` yielded an MIC of 258 µM (≈ 59.9 µg/mL).

Regarding `CC(C)=CCOc1ccccc1/C=C/C(=O)O`, the MIC stood at 258 µM (≈ 59.9 µg/mL).

The molecule `CC(C)=CCOc1ccc(/C=C/C(=O)O)cc1` registered an MIC of 86.1 µM (≈ 20 µg/mL).

In turn, `COC(=O)/C=C/c1ccccc1O` had an MIC of 112 µM (≈ 20 µg/mL).

On to `O=C(O)/C=C/c1cccc(O)c1`, for which 609 µM (≈ 100 µg/mL) was the least that counted as inhibitory (MIC).

As for `CC(=O)Nc1ccc(O)cc1` [ACETAMINOPHEN], the MIC was over 661 µM.

Turning to `O=C(O)/C=C/c1ccccc1` [CINNAMIC ACID], the MIC is 405 µM (≈ 60 µg/mL).

As for `O=C(O)/C=C/c1ccc(O)cc1` [COUMARIC ACID], the MIC came to 366 µM (≈ 60.1 µg/mL).

In the case of `NNC(=O)c1ccncc1` [ISONIAZID], the lowest concentration to inhibit growth (MIC) was 0.73 µM (≈ 0.1 µg/mL).

The molecule `CC(=O)Nc1cccc(O)c1` [METACETAMOL] came in with an MIC of over 661 µM.

Regarding `COC(=O)/C=C/c1ccc(O)cc1` [METHYL P-HYDROXYCINNAMATE], inhibition of growth (MIC) required 337 µM (≈ 60 µg/mL).

`O=C(O)/C=C/c1ccccc1O` [O-COUMARIC ACID] displayed an MIC of 244 µM (≈ 40.1 µg/mL).

`CO[C@H]1/C=C/O[C@@]2(C)Oc3c(C)c(O)c4c(O)c(c(/C=N/N5CCN(C)CC5)c(O)c4c3C2=O)NC(=O)/C(C)=C\C=C\[C@H](C)[C@H](O)[C@@H](C)[C@@H](O)[C@@H](C)[C@H](OC(C)=O)[C@@H]1C` [RIFAMPIN] came in with a minimum inhibitory concentration (MIC) of 0.0607 µM (≈ 0.05 µg/mL).
